# Results from patent US20240190880A1 (THE REGENTS OF THE UNIVERSITY OF MICHIGAN, priority 2021, published 2024).
# Target: T1, ER (Homo sapiens, UniProt P03372)
# T1 construct: host or cells: T47D and MCF7 human breast cancer cells
# T1 sequence (P03372 1-595): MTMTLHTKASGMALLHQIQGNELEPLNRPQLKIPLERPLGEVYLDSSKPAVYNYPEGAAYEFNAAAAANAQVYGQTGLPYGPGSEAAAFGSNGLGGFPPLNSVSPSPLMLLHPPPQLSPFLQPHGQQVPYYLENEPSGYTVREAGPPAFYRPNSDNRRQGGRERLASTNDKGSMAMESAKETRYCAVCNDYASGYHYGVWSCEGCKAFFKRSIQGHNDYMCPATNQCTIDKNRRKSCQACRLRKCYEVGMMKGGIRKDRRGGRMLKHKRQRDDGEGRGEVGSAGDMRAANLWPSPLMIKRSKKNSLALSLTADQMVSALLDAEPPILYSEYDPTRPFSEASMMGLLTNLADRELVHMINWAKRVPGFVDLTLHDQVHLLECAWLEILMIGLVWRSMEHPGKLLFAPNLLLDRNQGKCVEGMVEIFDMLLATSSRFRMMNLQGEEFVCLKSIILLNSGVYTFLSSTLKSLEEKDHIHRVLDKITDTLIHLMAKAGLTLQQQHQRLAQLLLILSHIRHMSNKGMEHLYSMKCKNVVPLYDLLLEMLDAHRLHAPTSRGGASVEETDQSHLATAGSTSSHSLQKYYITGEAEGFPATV
# Test: ER degradation activity, in-cell western blot analysis in T47D cells
# Assay type: cell-based
# Conditions: compounds 16 hours, Table A does not say whether T47D or MCF7, read-out: Potency (DC50)
# Summary of the method: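 T47D cells cultured in DMEM with 10% FBS, treated with compounds (final 0.5% DMSO) for 16 h. ER level measured by in-cell western with anti-rabbit-680/anti-mouse-800 near-infrared detection. Relative ER percentage calculated against untreated and DMSO-treated wells set as 100%.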
row,SMILES,DC50 [nM]
1,"O=C1CCC(N2C(=O)c3cc4c(cc3C2=O)CN(CC(=O)N2CC3(CCN(c5ccc([C@H]6c7ccc(O)cc7CC[C@H]6c6ccccc6)cc5)CC3)C2)C4)C(=O)N1 (stereo partly drawn) [E 438, 2-(2,6-dioxopiperidin-3-yl)-6-(2-(7-(4-((1S,2R)-6-hydroxy-2-phenyl-1,2,3,4-tetrahydronaphthalen-1-yl)phenyl)-2,7-diazaspiro[3.5]nonan-2-yl)-2-oxoethyl)-6,7-dihydropyrrolo[3,4-f]isoindole-1,3(2H,5H)-dione]",> 100
2,"C[C@@H]1Cc2cc(O)ccc2[C@@H](c2c(F)cc(C3=CCC4(CC3)CCN(C(=O)CN3Cc5cc6c(cc5C3)C(=O)N(C3CCC(=O)NC3=O)C6=O)CC4)cc2F)N1CC(F)F (stereo partly drawn) [E 446, 6-(2-(9-(4-((1S,3R)-2-(2,2-difluoroethyl)-6-hydroxy-3-methyl-1,2,3,4-tetrahydroisoquinolin-1-yl)-3,5-difluorophenyl)-3-azaspiro[5.5]undec-8-en-3-yl)-2-oxoethyl)-2-(2,6-dioxopiperidin-3-yl)-6,7-dihydropyrrolo[3,4-f]isoindole-1,3(2H,5H)-dione tetrahydroisoquinolin]",> 100
3,"C[C@@H]1Cc2cc(O)ccc2[C@@H](c2c(F)cc(C3CCC4(CC3)CCN(C(=O)CN3Cc5cc6c(cc5C3)C(=O)N(C3CCC(=O)NC3=O)C6=O)CC4)cc2F)N1CC(F)F (stereo partly drawn) [E 447, 6-(2-(9-(4-((1S,3R)-2-(2,2-difluoroethyl)-6-hydroxy-3-methyl-1,2,3,4-tetrahydroisoquinolin-1-yl)-3,5-difluorophenyl)-3-azaspiro[5.5]undecan-3-yl)-2-oxoethyl)-2-(2,6-dioxopiperidin-3-yl)-6,7-dihydropyrrolo[3,4-f]isoindole-1,3(2H,5H)-dione]",> 100
4,"C[C@@H]1Cc2cc(O)ccc2[C@@H](c2ccc(C3=CCC4(CC3)CCN(C(=O)CN3Cc5cc6c(cc5C3)C(=O)N(C3CCC(=O)NC3=O)C6=O)CC4)cc2)N1CC(F)F (stereo partly drawn) [E 448, 6-(2-(9-(4-((1R,3R)-2-(2,2-difluoroethyl)-6-hydroxy-3-methyl-1,2,3,4-tetrahydroisoquinolin-1-yl)phenyl)-3-azaspiro[5.5]undec-8-en-3-yl)-2-oxoethyl)-2-(2,6-dioxopiperidin-3-yl)-6,7-dihydropyrrolo[3,4-f]isoindole-1,3(2H,5H)-dione]",> 100
5,"C[C@@H]1Cc2cc(O)ccc2[C@H](c2ccc(C3=CCC4(CC3)CCN(C(=O)CN3Cc5cc6c(cc5C3)C(=O)N(C3CCC(=O)NC3=O)C6=O)CC4)cc2)N1CC(F)F (stereo partly drawn) [E 449, 6-(2-(9-(4-((1S,3R)-2-(2,2-difluoroethyl)-6-hydroxy-3-methyl-1,2,3,4-tetrahydroisoquinolin-1-yl)phenyl)-3-azaspiro[5.5]undec-8-en-3-yl)-2-oxoethyl)-2-(2,6-dioxopiperidin-3-yl)-6,7-dihydropyrrolo[3,4-f]isoindole-1,3(2H,5H)-dione]",> 100
6,"C[C@@H]1Cc2cc(O)ccc2[C@@H](c2c(F)cc(N(C)C3CC4(CCN(C(=O)CN5Cc6cc7c(cc6C5)C(=O)N(C5CCC(=O)NC5=O)C7=O)CC4)C3)cc2F)N1CC(F)F (stereo partly drawn) [E 452, 6-(2-(2-((4-((1S,3R)-2-(2,2-difluoroethyl)-6-hydroxy-3-methyl-1,2,3,4-tetrahydroisoquinolin-1-yl)-3,5-difluorophenyl)(methyl)amino)-7-azaspiro[3.5]nonan-7-yl)-2-oxoethyl)-2-(2,6-dioxopiperidin-3-yl)-6,7-dihydropyrrolo[3,4-f]isoindole-1,3(2H,5H)-dione]",10 to 100
7,"C[C@@H]1Cc2cc(O)ccc2[C@@H](c2ccc(C(=O)N3CCC4(CCC(CN5Cc6cc7c(cc6C5)C(=O)N(C5CCC(=O)NC5=O)C7=O)CC4)CC3)cc2)N1CC(F)F (stereo partly drawn) [E 454, 6-((3-(4-((1R,3R)-2-(2,2-difluoroethyl)-6-hydroxy-3-methyl-1,2,3,4-tetrahydroisoquinolin-1-yl)benzoyl)-3-azaspiro[5.5]undecan-9-yl)methyl)-2-(2,6-dioxopiperidin-3-yl)-6,7-dihydropyrrolo[3,4-f]isoindole-1,3(2H,5H)-dione]",> 100
8,"C[C@@H]1Cc2cc(O)ccc2[C@@H](c2c(F)cc(OC3CC4(CCN(C(=O)CN5Cc6cc7c(cc6C5)C(=O)N(C5CCC(=O)NC5=O)C7=O)CC4)C3)cc2F)N1CC(F)F (stereo partly drawn) [E 455, 6-(2-(2-(4-((1S,3R)-2-(2,2-difluoroethyl)-6-hydroxy-3-methyl-1,2,3,4-tetrahydroisoquinolin-1-yl)-3,5-difluorophenoxy)-7-azaspiro[3.5]nonan-7-yl)-2-oxoethyl)-2-(2,6-dioxopiperidin-3-yl)-6,7-dihydropyrrolo[3,4-f]isoindole-1,3(2H,5H)-dione]",10 to 100

# Results, then the molecule that gave them:
row,DC50 [nM],SMILES
1,< 10,COc1c2c(cc3c1CN(C1CCC(=O)NC1=O)C3=O)CN(CC(=O)N1CC3(CCN(c4cc(F)c([C@@H]5c6ccc7[nH]ncc7c6C[C@@H](C)N5CC(F)F)c(F)c4)CC3)C1)C2 (stereo partly shown) [E 441]
2,< 10,"COc1c2c(cc3c1CN(C1CCC(=O)NC1=O)C3=O)CN(CC(=O)N1CCC3(CC1)CCN(c1cc(F)c([C@@H]4c5[nH]c6ccccc6c5C[C@@H](C)N4CC(F)F)c(F)c1)CC3)C2 (stereo partly drawn) [E 444, 3-(6-(2-(9-(4-((1R,3R)-2-(2,2-difluoroethyl)-3-methyl-2,3,4,9-tetrahydro-1H-pyrido[3,4-b]indol-1-yl)-3,5-difluorophenyl)-3,9-diazaspiro[5.5]undecan-3-yl)-2-oxoethyl)-4-methoxy-1-oxo-3,5,6,7-tetrahydropyrrolo[3,4-f]isoindol-2(1H)-yl)piperidine-2,6-dione]"
3,10 to 100,"C[C@@H]1Cc2cc(O)ccc2C(c2ccc(C3CCC4(CC3)CCN(C(=O)CN3Cc5cc6c(cc5C3)C(=O)N(C3CCC(=O)NC3=O)C6=O)CC4)cc2)N1CC(F)F (stereo partly drawn) [E 450, 6-(2-(9-(4-((3R)-2-(2,2-difluoroethyl)-6-hydroxy-3-methyl-1,2,3,4-tetrahydroisoquinolin-1-yl)phenyl)-3-azaspiro[5.5]undecan-3-yl)-2-oxoethyl)-2-(2,6-dioxopiperidin-3-yl)-6,7-dihydropyrrolo[3,4-f]isoindole-1,3(2H,5H)-dione]"
4,10 to 100,"C[C@@H]1Cc2cc(O)ccc2[C@@H](c2c(F)cc(NC3CC4(CCN(C(=O)CN5Cc6cc7c(cc6C5)C(=O)N(C5CCC(=O)NC5=O)C7=O)CC4)C3)cc2F)N1CC(F)F (stereo partly drawn) [E 451, 6-(2-(2-((4-((1S,3R)-2-(2,2-difluoroethyl)-6-hydroxy-3-methyl-1,2,3,4-tetrahydroisoquinolin-1-yl)-3,5-difluorophenyl)amino)-7-azaspiro[3.5]nonan-7-yl)-2-oxoethyl)-2-(2,6-dioxopiperidin-3-yl)-6,7-dihydropyrrolo[3,4-f]isoindole-1,3(2H,5H)-dione]"
5,< 10,"C[C@@H]1Cc2cc(O)ccc2[C@@H](c2c(F)cc(OCC3CCC4(CC3)CN(C(=O)CN3Cc5cc6c(cc5C3)C(=O)N(C3CCC(=O)NC3=O)C6=O)C4)cc2F)N1CC(F)F (stereo partly drawn) [E 453, 6-(2-(7-((4-((1S,3R)-2-(2,2-difluoroethyl)-6-hydroxy-3-methyl-1,2,3,4-tetrahydroisoquinolin-1-yl)-3,5-difluorophenoxy)methyl)-2-azaspiro[3.5]nonan-2-yl)-2-oxoethyl)-2-(2,6-dioxopiperidin-3-yl)-6,7-dihydropyrrolo[3,4-f]isoindole-1,3(2H,5H)-dione]"
